US6620803B2, “Cosmetic or dermatological use of 7-hydroxylated steroids” (Vitasterol SARL, priority 1997, dated 2003)

Assays:
[1] = system: thymocytes of C57BL/6 mice (mouse T cells); test: Cell apoptosis induced by glucocorticoids in cultured mouse thymocytes (flow cytometry, propidium iodide); format: cell-based, mouse (C57BL/6)
Protocol: The thymus of C57BL/6 mice aged 4 weeks is removed. Culturing of the thymocytes is carried out for 6 hours in RPMI 1640 medium and in the presence or in the absence of the steroid tested. Apoptosis (fragmentation of the DNA) is measured by flow cytometry after labeling with propidium iodide. The apoptotic phenomenon is checked by electrophoresis of the DNA, which is visualized by ethidium bromide according to the conventional technique (observation of ranges of 200 base pairs).

[2] = Viability of human keratinocytes in culture (MTT test); format: cell-based; details: human, primary human keratinocytes in monolayer culture
Protocol: (§1) Human keratinocyzes are obtained from parts removed by surgery and are cultured in a monolayer to preconfluence. 7α-Hydroxy-DHEA is administered to these cultures at various concentrations in ethanolic solution (10%), each concentration being tested eight times. Controls are carried out with ethanol alone (10%). After 24 hours, the viability of the keratinocytes is measured by testing with MTT (3-(4,5-dimethylthiazol-2-yl)-2,5-diphenyltetrazolium bromide) where the mitochondrial dehydrogenase succinate transforms the MTT into blue crystals of formazan which are soluble in DMSO (Mosmann, J. Immunol. Methods 65: 55-63, 1983). The cell viability is calculated according to the formula:
(§2) Any value greater than 100 indicates a product favoring cell viability.

human keratinocytes [3] = test: Anti-free radical effect on UVA-irradiated suspension of human keratinocytes (lipid peroxides by chemiluminescence); format: cell-based; details: 10^−6 M, calculated on nonirradiated controls and reference of protection
Protocol: Keratinocytes originating from a healthy donor are cultured to the subconfluent stage in medium (KGM) which is specific for the proliferation of the keratinocytes. The suspensions obtained are divided in triplicate into 4 series of which 3 are irradiated for 30 min with a lamp emitting UVA in order to activate the production of free radicals. Among the three irradiated series, one contains the vitamins C+E (0.7%) and serves as a reference of protection, one contains 7α-hydroxy-DHEA at 10^−6M and the last serves as a control.
The free radicals produced generate lipid peroxides which are determined by chemiluminescence (Belghmi et al. J. Biolum. Chemilum. 2: 113-119, 1982). The efficacy of 7α-hydroxy-DHEA is calculated on the basis of nonirradiated controls and of the reference of protection.

human keratinocytes [4] = test: Viability of human keratinocytes in culture (MTT test); format: cell-based; details: concentrations tested 10^−4 M to 10^−8 M
Protocol: as §1, §2

[5] = steroid 10^−5 M together with Dexamethasone 10^−5 M, 6 hours, dexamethasone alone 73.5
[6] = steroid 10^−6 M together with Dexamethasone 10^−6 M, 6 hours, dexamethasone alone 72.7

C[C@]12CC[C@H](O)CC1=CC[C@@H]1[C@@H]2CC[C@]2(C)C(=O)CC[C@@H]12 [DHEA, 3β-hydroxy-5-androstene-17-one, reference compound]
Apoptotic cells (%) [1, 5]: 51.4% | Apoptotic cells (%) [1, 6]: 39.0% | viability at 24 h ([2]; other comparative tests, concentration not given): 100 ± 5%

C[C@@H]1C[C@H]2[C@@H]3CCC4=CC(=O)C=C[C@]4(C)[C@@]3(F)[C@@H](O)C[C@]2(C)[C@@]1(O)C(=O)CO [Dexamethasone, reference compound]
Apoptotic cells (%) ([1]; Dexamethasone 10^−5 M alone, thymocytes cultured 6 hours, ethanol alone 41.5): 73.5% | Apoptotic cells (%) ([1]; Dexamethasone 10^−6 M alone, thymocytes cultured 6 hours, ethanol alone 41.5): 72.7%

C[C@]12CC[C@H](O)C[C@@H]1C[C@@H](O)[C@@H]1[C@@H]2CC[C@]2(C)C(=O)CC[C@@H]12 [7α-hydroxy-ISOA, 3β,7α-dihydroxy-5α-androstan-17-one]
Apoptotic cells (%) [1, 5]: 46.3% | Apoptotic cells (%) [1, 6]: 72.0%

C[C@]12CC[C@H](O)CC1=C[C@@H](O)[C@@H]1[C@@H]2CC[C@]2(C)C(=O)CC[C@@H]12 [7α-hydroxy-DHEA, 3β,7α-dihydroxy-5-androsten-17-one]
Apoptotic cells (%) [1, 5]: 48.6% | Apoptotic cells (%) [1, 6]: 58.8% | Efficacy (human keratinocytes [3]): 90% | Cytotoxicity on keratinocytes (human keratinocytes [4]): no cytotoxicity was observed | viability at 24 h ([2]; 5.10^−5 M, 24 hours, control 100): 111 ± 7% | viability at 24 h ([2]; 5.10^−6 M, 24 hours, control 100): 147 ± 9% | viability at 24 h ([2]; 5.10^−7 M, 24 hours, control 100): 139 ± 3% | viability at 24 h ([2]; 10^−4 M, 24 hours, control 100): 124 ± 10% | viability at 24 h ([2]; 10^−5 M, 24 hours, control 100): 119 ± 7% | viability at 24 h ([2]; 10^−6 M, 24 hours, control 100): 154 ± 6% | viability at 24 h ([2]; 10^−7 M, 24 hours, control 100): 147 ± 5% | viability at 24 h ([2]; 10^−8 M, 24 hours, control 100): 127 ± 3%
